Experimental data taken from patent publication US20030143645A1, “Quinone reductase 2 and aldehyde dehydrogenase as therapeutic targets” (priority 2001, published 2003).

Tests used:
[1] = molecular target: T1, QR2 (Homo sapiens, UniProt P16083); assay: QR2 activity assay with recombinant QR2 (Example 2); assay type: biochemical; design: GST (N, cleaved yes); made in house; E. coli only by inference; settings: recombinant QR2; 50 μM NMeH, 5-30 μM menadione; read-out: QR2 K1 (μM) ± SEM
T1 sequence (P16083 1-231): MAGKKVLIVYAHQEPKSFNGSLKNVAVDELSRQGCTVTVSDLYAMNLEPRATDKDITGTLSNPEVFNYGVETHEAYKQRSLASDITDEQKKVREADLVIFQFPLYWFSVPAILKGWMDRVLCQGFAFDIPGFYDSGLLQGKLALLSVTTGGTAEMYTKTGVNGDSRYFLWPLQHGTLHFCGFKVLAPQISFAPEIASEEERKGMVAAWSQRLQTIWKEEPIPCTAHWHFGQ
Method: Cloning of human QR2. Human QR2 was PCR amplified from human liver cDNA (Clontech) with the following primers: 5′[…]-3′ and 5′-[…]-3′ and cloned into the pGEX-4T-2 GST expression vector (Pharmacia). GST-tagged QR2 was purified and the GST tag removed according to the manufacturers instructions.
ALDH1, QR2 and QR1 activity assays. […] Reaction products were separated with a gradient of acetonitrile in 10 mM triethylamine acetic acid. […] QR1 IC50 values were calculated using GraphPad Prism.

[2] = molecular target: T2, ALDH1 (Homo sapiens, UniProt P00352); assay: ALDH1 HPLC-based activity assay (Example 2); assay type: biochemical; settings: physiological concentrations of NAD+
T2 construct: Purification of native ALDH1, QR2 and QR1; RBC extract was prepared as described above and applied to PQ-Sepharose; tissue Valley Biomedical (blood); host or cells: human red blood cells
T2 sequence (P00352 1-501): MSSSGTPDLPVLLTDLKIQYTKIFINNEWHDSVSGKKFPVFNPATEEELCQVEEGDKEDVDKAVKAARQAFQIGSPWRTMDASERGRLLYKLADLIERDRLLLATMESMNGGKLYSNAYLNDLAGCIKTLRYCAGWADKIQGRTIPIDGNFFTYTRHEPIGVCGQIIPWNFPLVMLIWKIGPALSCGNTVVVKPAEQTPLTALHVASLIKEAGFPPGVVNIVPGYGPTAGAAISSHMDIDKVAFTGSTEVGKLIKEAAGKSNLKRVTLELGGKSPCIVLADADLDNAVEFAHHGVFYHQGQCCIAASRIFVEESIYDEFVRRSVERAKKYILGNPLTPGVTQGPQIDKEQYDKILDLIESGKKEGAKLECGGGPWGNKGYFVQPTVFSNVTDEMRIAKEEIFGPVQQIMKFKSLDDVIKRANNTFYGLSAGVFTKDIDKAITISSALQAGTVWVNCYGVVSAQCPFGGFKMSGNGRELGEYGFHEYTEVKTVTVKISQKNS
Method: Purification of native ALDH1, QR2 and QR1. RBC extract was prepared as described above and applied to PQ-Sepharose equilibrated in buffer A. ALDH1 and QR2 were obtained by eluting the column with 5 mM b-NAD^+ and NMeH respectively. QR1 was purified from rabbit liver as previously described (Lind et al, Methods Enzymol. 186:287-301 (1990)). All enzymes were sequenced to confirm their identify and were >90% pure as judged by SDS-PAGE and silver staining.
ALDH1, QR2 and QR1 activity assays. ALDH1 activity was determined using an HPLC-based assay because of the co-absorbance of CQ and NADH at 340 nm. Reaction products were separated with a gradient of acetonitrile in 10 mM triethylamine acetic acid. CQ and NADH peaks were identified by their signature spectra using an online photodiode array detector. QR2 activity was assayed in triplicate with recombinant QR2 (at 96 ng/mL) by measuring the absorbance at 365 nm in a buffer containing 50 mM Tris-HCl, pH 8.5, 50 μM NMeH, 5-30 μM menadione, and 0.1% Triton X-100. […] QR2 K1 values were calculated using KinetAsyst II by fitting the experimental data to the equations of Cleland (Methods Enzymol. 63:103-138 (1979)). […] QR1 IC50 values were calculated using GraphPad Prism.
The quinolines inhibit ALDH1 and QR2. […] Because of the co-absorbance of NADH and CQ at 340 nm, an HPLC based assay was developed to determine the effects of CQ on ALDH1 activity.

- Ki [1]: 0.61 ± 0.1 µM
- IC50 [2]: 500 µM
SMILES: CCN(CC)CCCC(C)Nc1ccnc2cc(Cl)ccc12 (centres unmarked) [CQ, chloroquine]
